Measurements published in the supplement of paper PMC4862054.
“And” between values parts separate entries of the source, which are not always exact repeats. Equal entries are not always repeated.

tested on: HCC1937; test: normalised viability (% of control), CellTiter-Blue; higher = more viable cells (about 100 = DMSO control); conditions: 100 nM; incubation time: 72 h
Experimental: (§1)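 DSRT, CellTiter-Blue viability, 72 h incubation. Signal is normalised to DMSO and benzethonium chloride controls. Value is the normalised response at dose 3.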

In the case of COc1cc2ncnc(Nc3ccc(F)c(Cl)c3)c2cc1OCCCN1CCOCC1 [Gefitinib], the normalised viability is reported as 102% and 92%.
In the case of CCc1c2c(nc3ccc(OC(=O)N4CCC(N5CCCCC5)CC4)cc13)-c1cc3c(c(=O)n1C2)COC(=O)[C@]3(O)CC [Irinotecan], the normalised viability is reported as 93.2% and 84.8%.

tested on: HDQ-P1; test: as above; conditions: 10 nM; incubation time: 72 h
Experimental: as §1

Point of comparison: Nc1cc(C(F)(F)F)c(-c2cc(N3CCOCC3)nc(N3CCOCC3)n2)cn1 [BKM-120], normalised viability 111%. Against it:
- Cc1cc(Nc2cc(CN3CCOCC3)c3nc(C)c(Cc4ccc(Cl)cc4F)n3n2)n[nH]1 — lower, 92.8%
- N#Cc1ccc(COC[C@H]2O[C@@H](n3c(NCc4ccc(Cl)c(Cl)c4)nc4c(N)ncnc43)[C@H](O)[C@@H]2O)cc1 — higher, 116%
- COc1cc(OC2CCN(C)CC2)ccc1Nc1ncc2c(n1)n(C1CCCC1)c(=O)n2C [AZ 3146] — lower, 79.1%
- CN(C)c1nc(N(C)C)nc(N(C)C)n1 [Altretamine] — lower, 105%
- COC(=O)c1ccc2c(c1)NC(=O)/C2=C(\Nc1ccc(N(C)C(=O)CN2CCN(C)CC2)cc1)c1ccccc1 [BIBF 1120] — higher, 122%

For COc1cc2ncnc(Nc3ccc(F)c(Cl)c3)c2cc1OCCCN1CCOCC1 [Gefitinib], the normalised viability was 103% and 100%.
With CCc1c2c(nc3ccc(OC(=O)N4CCC(N5CCCCC5)CC4)cc13)-c1cc3c(c(=O)n1C2)COC(=O)[C@]3(O)CC [Irinotecan] the normalised viability was 102% and 126%.

tested on: Hs578T; test: as above; conditions: 100 nM; incubation time: 72 h
Experimental: as §1

Point of comparison: Nc1cc(C(F)(F)F)c(-c2cc(N3CCOCC3)nc(N3CCOCC3)n2)cn1 [BKM-120], normalised viability 96.6%. Against it:
- Cc1cc(Nc2cc(CN3CCOCC3)c3nc(C)c(Cc4ccc(Cl)cc4F)n3n2)n[nH]1 — lower, 85.9%
- N#Cc1ccc(COC[C@H]2O[C@@H](n3c(NCc4ccc(Cl)c(Cl)c4)nc4c(N)ncnc43)[C@H](O)[C@@H]2O)cc1 — lower, 95.8%
- COc1cc(OC2CCN(C)CC2)ccc1Nc1ncc2c(n1)n(C1CCCC1)c(=O)n2C [AZ 3146] — lower, 82%
- CN(C)c1nc(N(C)C)nc(N(C)C)n1 [Altretamine] — lower, 96.1%
- COC(=O)c1ccc2c(c1)NC(=O)/C2=C(\Nc1ccc(N(C)C(=O)CN2CCN(C)CC2)cc1)c1ccccc1 [BIBF 1120] — higher, 104%

With COc1cc2ncnc(Nc3ccc(F)c(Cl)c3)c2cc1OCCCN1CCOCC1 [Gefitinib] the normalised viability was 86.3% and 99.7%.
With CCc1c2c(nc3ccc(OC(=O)N4CCC(N5CCCCC5)CC4)cc13)-c1cc3c(c(=O)n1C2)COC(=O)[C@]3(O)CC [Irinotecan] the normalised viability was 97.9% and 90.4%.

tested on: MDA-MB-231; test: as above; conditions: 100 nM; incubation time: 72 h
Experimental: as §1

Point of comparison: COC(=O)c1ccc2c(c1)NC(=O)/C2=C(\Nc1ccc(N(C)C(=O)CN2CCN(C)CC2)cc1)c1ccccc1 [BIBF 1120], normalised viability 104%. Against it:
- Cc1cc(Nc2cc(CN3CCOCC3)c3nc(C)c(Cc4ccc(Cl)cc4F)n3n2)n[nH]1 — lower, 102%
- N#Cc1ccc(COC[C@H]2O[C@@H](n3c(NCc4ccc(Cl)c(Cl)c4)nc4c(N)ncnc43)[C@H](O)[C@@H]2O)cc1 — lower, 90.1%
- COc1cc(OC2CCN(C)CC2)ccc1Nc1ncc2c(n1)n(C1CCCC1)c(=O)n2C [AZ 3146] — lower, 96.1%
- CN(C)c1nc(N(C)C)nc(N(C)C)n1 [Altretamine] — lower, 96.8%
- Nc1cc(C(F)(F)F)c(-c2cc(N3CCOCC3)nc(N3CCOCC3)n2)cn1 [BKM-120] — lower, 83.6%

COc1cc2ncnc(Nc3ccc(F)c(Cl)c3)c2cc1OCCCN1CCOCC1 [Gefitinib] was tested, and the normalised viability was 93.9% and 97%.
In the case of CCc1c2c(nc3ccc(OC(=O)N4CCC(N5CCCCC5)CC4)cc13)-c1cc3c(c(=O)n1C2)COC(=O)[C@]3(O)CC [Irinotecan], the normalised viability is reported as 90.9% and 103%.

tested on: MDA-MB-436; test: as above; conditions: 100 nM; incubation time: 72 h
Experimental: as §1

Point of comparison: COC(=O)c1ccc2c(c1)NC(=O)/C2=C(\Nc1ccc(N(C)C(=O)CN2CCN(C)CC2)cc1)c1ccccc1 [BIBF 1120], normalised viability 98.9%. Against it:
- Cc1cc(Nc2cc(CN3CCOCC3)c3nc(C)c(Cc4ccc(Cl)cc4F)n3n2)n[nH]1 — higher, 108%
- N#Cc1ccc(COC[C@H]2O[C@@H](n3c(NCc4ccc(Cl)c(Cl)c4)nc4c(N)ncnc43)[C@H](O)[C@@H]2O)cc1 — higher, 104%
- COc1cc(OC2CCN(C)CC2)ccc1Nc1ncc2c(n1)n(C1CCCC1)c(=O)n2C [AZ 3146] — lower, 93.5%
- CN(C)c1nc(N(C)C)nc(N(C)C)n1 [Altretamine] — lower, 89.5%
- Nc1cc(C(F)(F)F)c(-c2cc(N3CCOCC3)nc(N3CCOCC3)n2)cn1 [BKM-120] — lower, 90.2%

COc1cc2ncnc(Nc3ccc(F)c(Cl)c3)c2cc1OCCCN1CCOCC1 [Gefitinib] was tested, and the normalised viability was 89.9% and 93.7%.
In the case of CCc1c2c(nc3ccc(OC(=O)N4CCC(N5CCCCC5)CC4)cc13)-c1cc3c(c(=O)n1C2)COC(=O)[C@]3(O)CC [Irinotecan], the normalised viability is reported as 89.2% and 99.7%.

tested on: MDA-MB-453; test: as above; conditions: 10 nM; incubation time: 72 h
Experimental: as §1

Point of comparison: CN(C)c1nc(N(C)C)nc(N(C)C)n1 [Altretamine], normalised viability 97.5%. Against it:
- Cc1cc(Nc2cc(CN3CCOCC3)c3nc(C)c(Cc4ccc(Cl)cc4F)n3n2)n[nH]1 — lower, 91.1%
- N#Cc1ccc(COC[C@H]2O[C@@H](n3c(NCc4ccc(Cl)c(Cl)c4)nc4c(N)ncnc43)[C@H](O)[C@@H]2O)cc1 — higher, 105%
- COc1cc(OC2CCN(C)CC2)ccc1Nc1ncc2c(n1)n(C1CCCC1)c(=O)n2C [AZ 3146] — lower, 88.2%
- COC(=O)c1ccc2c(c1)NC(=O)/C2=C(\Nc1ccc(N(C)C(=O)CN2CCN(C)CC2)cc1)c1ccccc1 [BIBF 1120] — higher, 101%
- Nc1cc(C(F)(F)F)c(-c2cc(N3CCOCC3)nc(N3CCOCC3)n2)cn1 [BKM-120] — lower, 96%

Compound COc1cc2ncnc(Nc3ccc(F)c(Cl)c3)c2cc1OCCCN1CCOCC1 [Gefitinib] has a normalised viability of 96.9%.
In the case of CCc1c2c(nc3ccc(OC(=O)N4CCC(N5CCCCC5)CC4)cc13)-c1cc3c(c(=O)n1C2)COC(=O)[C@]3(O)CC [Irinotecan], the normalised viability is reported as 102% and 115%.

tested on: MDA-MB-468; test: as above; conditions: 100 nM; incubation time: 72 h
Experimental: as §1

Point of comparison: COC(=O)c1ccc2c(c1)NC(=O)/C2=C(\Nc1ccc(N(C)C(=O)CN2CCN(C)CC2)cc1)c1ccccc1 [BIBF 1120], normalised viability 111%. Against it:
- Cc1cc(Nc2cc(CN3CCOCC3)c3nc(C)c(Cc4ccc(Cl)cc4F)n3n2)n[nH]1 — lower, 103%
- N#Cc1ccc(COC[C@H]2O[C@@H](n3c(NCc4ccc(Cl)c(Cl)c4)nc4c(N)ncnc43)[C@H](O)[C@@H]2O)cc1 — lower, 94.5%
- COc1cc(OC2CCN(C)CC2)ccc1Nc1ncc2c(n1)n(C1CCCC1)c(=O)n2C [AZ 3146] — lower, 106%
- CN(C)c1nc(N(C)C)nc(N(C)C)n1 [Altretamine] — lower, 104%
- Nc1cc(C(F)(F)F)c(-c2cc(N3CCOCC3)nc(N3CCOCC3)n2)cn1 [BKM-120] — lower, 99.2%

COc1cc2ncnc(Nc3ccc(F)c(Cl)c3)c2cc1OCCCN1CCOCC1 [Gefitinib] was tested, and the normalised viability was 81.7% and 89.3%.
For CCc1c2c(nc3ccc(OC(=O)N4CCC(N5CCCCC5)CC4)cc13)-c1cc3c(c(=O)n1C2)COC(=O)[C@]3(O)CC [Irinotecan], the normalised viability was 102% and 108%.

tested on: MFM-223; test: as above; conditions: 100 nM; incubation time: 72 h
Experimental: as §1

Point of comparison: COC(=O)c1ccc2c(c1)NC(=O)/C2=C(\Nc1ccc(N(C)C(=O)CN2CCN(C)CC2)cc1)c1ccccc1 [BIBF 1120], normalised viability 79.1%. Against it:
- Cc1cc(Nc2cc(CN3CCOCC3)c3nc(C)c(Cc4ccc(Cl)cc4F)n3n2)n[nH]1 — lower, 67.9%
- N#Cc1ccc(COC[C@H]2O[C@@H](n3c(NCc4ccc(Cl)c(Cl)c4)nc4c(N)ncnc43)[C@H](O)[C@@H]2O)cc1 — higher, 93.9%
- COc1cc(OC2CCN(C)CC2)ccc1Nc1ncc2c(n1)n(C1CCCC1)c(=O)n2C [AZ 3146] — higher, 105%
- CN(C)c1nc(N(C)C)nc(N(C)C)n1 [Altretamine] — higher, 97.2%
- Nc1cc(C(F)(F)F)c(-c2cc(N3CCOCC3)nc(N3CCOCC3)n2)cn1 [BKM-120] — higher, 84%

For COc1cc2ncnc(Nc3ccc(F)c(Cl)c3)c2cc1OCCCN1CCOCC1 [Gefitinib], the normalised viability was 98.7% and 89.5%.
In the case of CCc1c2c(nc3ccc(OC(=O)N4CCC(N5CCCCC5)CC4)cc13)-c1cc3c(c(=O)n1C2)COC(=O)[C@]3(O)CC [Irinotecan], the normalised viability is reported as 93.8% and 94.5%.

tested on: SK-BR-3; test: as above; conditions: 100 nM; incubation time: 72 h
Experimental: as §1

Point of comparison: COc1cc(OC2CCN(C)CC2)ccc1Nc1ncc2c(n1)n(C1CCCC1)c(=O)n2C [AZ 3146], normalised viability 97.3%. Against it:
- Cc1cc(Nc2cc(CN3CCOCC3)c3nc(C)c(Cc4ccc(Cl)cc4F)n3n2)n[nH]1 — lower, 87.1%
- N#Cc1ccc(COC[C@H]2O[C@@H](n3c(NCc4ccc(Cl)c(Cl)c4)nc4c(N)ncnc43)[C@H](O)[C@@H]2O)cc1 — lower, 89.7%
- CN(C)c1nc(N(C)C)nc(N(C)C)n1 [Altretamine] — lower, 92.2%
- COC(=O)c1ccc2c(c1)NC(=O)/C2=C(\Nc1ccc(N(C)C(=O)CN2CCN(C)CC2)cc1)c1ccccc1 [BIBF 1120] — lower, 91.6%
- Nc1cc(C(F)(F)F)c(-c2cc(N3CCOCC3)nc(N3CCOCC3)n2)cn1 [BKM-120] — lower, 76.7%

COc1cc2ncnc(Nc3ccc(F)c(Cl)c3)c2cc1OCCCN1CCOCC1 [Gefitinib] was tested, and the normalised viability was 80.9% and 72.1%.
CCc1c2c(nc3ccc(OC(=O)N4CCC(N5CCCCC5)CC4)cc13)-c1cc3c(c(=O)n1C2)COC(=O)[C@]3(O)CC [Irinotecan] was tested, and the normalised viability was 80.2% and 85.2%.

tested on: BT-474; test: drug sensitivity score (DSS), CellTiter-Glo (DSS (AUC-based score)); higher = stronger drug effect (viability inhibition or cytotoxicity); extreme values may be limits of the assay; conditions: incubation time: 72 h
How it was run: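 The drug sensitivity score reflects the area under a fitted dose-response curve. To obtain it, breast cancer cells in 20 µl suspension were seeded into 384-well plates containing compound at 5 concentrations, 10-fold apart over a compound-specific 10,000-fold range, and incubated 72 h. CellTox Green fluorescence (485/520 nm) was read first and CellTiter-Glo luminescence second, after 10 min at room temperature. Each plate was normalised to 0.1 % DMSO and a positive kill control.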

Point of comparison: Nc1cc(C(F)(F)F)c(-c2cc(N3CCOCC3)nc(N3CCOCC3)n2)cn1 [Buparlisib], drug sensitivity score 3.23. Against it:
- CCn1c(-c2nonc2N)nc2cnc(Oc3cccc(NC(=O)c4ccc(OCCN5CCOCC5)cc4)c3)cc21 — higher, 5.28
- N#Cc1ccc(COC[C@H]2O[C@@H](n3c(NCc4ccc(Cl)c(Cl)c4)nc4c(N)ncnc43)[C@H](O)[C@@H]2O)cc1 — higher, 3.43
- COc1cc(O)c2c(c1)/C=C/C[C@H](O)[C@H](O)C(=O)/C=C\C[C@H](C)OC2=O [(5Z)-7-Oxozeaenol] — higher, 7.43
- COc1cc(OC2CCN(C)CC2)ccc1Nc1ncc2c(n1)n(C1CCCC1)c(=O)n2C [AZ 3146] — lower, 2.51
- CNC(=O)c1cccc(-c2ccc3c(N4CCOC[C@@H]4C)nc(N4CCOC[C@@H]4C)nc3n2)c1 [AZD2014] — higher, 8.78
- CN(C)c1nc(N(C)C)nc(N(C)C)n1 [Altretamine] — lower, 0
- CNC(=O)c1ccc(N2C(=S)N(c3ccc(C#N)c(C(F)(F)F)c3)C(=O)C2(C)C)cc1F [Enzalutamide] — lower, 0
- CCOC(=O)CCNc1cc(N2CCc3ccccc3CC2)nc(-c2ccccn2)n1 [GSK-J4] — higher, 12.1
- Cc1cc(Nc2cc(CN3CCOCC3)c3nc(C)c(Cc4ccc(Cl)cc4F)n3n2)n[nH]1 [Gandotinib] — higher, 6.22
- COc1cc2ncnc(Nc3ccc(F)c(Cl)c3)c2cc1OCCCN1CCOCC1 [Gefitinib] — lower, 0
